Where two headings read alike, the source gives them in different places. Marks after values point to notes of the source that are not given here.
Experiments:
BVDV = BVDV antiviral assay in MDBK cells, XTT readout of inhibition of virus-induced cell killing; assay type: cell-based; settings: for Comments: activity against BVDV / toxicity; for TI: TC50/IC50
Description: (§1) Madin-Darby bovine kidney (MDBK) cells were passaged in T-75 flasks for use in the assay. On the day preceding the assay, the cells were trypsinized, pelleted, counted and resuspended at 6×10^4/well in tissue culture medium. Cells were added to 96 well flat bottom plates in a volume of 100 μl per well.
A pretitered aliquot of virus is removed from the freezer (−80° C.) and allowed to thaw slowly to room temperature in a biological safety cabinet. The virus is diluted into tissue culture medium such that the amount of virus added to each well in a volume of 100 μl will be the amount determined to give complete cell killing at 6 days post-infection.
(§2) Interferon was purchased from PBL Biomedical Laboratories (New Brunswick, N.J.) and was in PBS solutions. On the day of testing, the drug stock is diluted in the medium to the desired high concentration and then further diluted in the medium in half log series.
(§3) The day following plating of cells, plates are removed from the incubator, and medium is removed and discarded. Drug dilutions are added to appropriate wells of the microtiter plate in a volume of 100 μl per well. Each dilution is set up in triplicate. Complete medium or complete medium containing appropriately diluted virus is added to appropriate wells in a volume of 100 μl per well.
(§4) The format of the test plate has been standardized. Each plate contains cell control wells (cell only), virus control wells (cells plus virus), drug toxicity control wells (cells plus drug only), drug colorimetric control wells (drug only) as well as experimental wells (drugs plus cells plus virus).
(§5) The cell viability was evaluated by a dye (XTT) uptake procedure. XTT-tetraolium is metabolized by the mitochontrial enzymes of metabolically active cells to a soluble formazan product, allowing the rapid quantitative analysis of the inhibition of virus-induced cell killing by antiviral test substances.
(§6) XTT solution was prepared daily as a stock of 1 mg/ml in PBS. Phenazine methosulfate (PMS) solution was prepared at 15 mg/ml in PVBS and stored in the dark at −20° C. STT/PMS stock was prepared immediately before use by diluting PMS 1:100 into PBS and adding 40 μl per ml of XTT solution. Fifty microliters of XTT/PMS was added to each well of the plate (each well had been loaded with 100 μl fresh medium) and the plate was reincubated for 4 hours at 37° C.
(§7) Adhesive plate sealers were used in place of the lids, the sealed plate was inverted several times to mix the soluble formazan product and the plate was read spectrophotometrically at 450 nm (XTT) with a Molecular Devices Vmax plate reader.
(§8) The efficacy and toxicity of inteferons are analyzed using a computer program (developed by Southern Research Institute) which calculates % CPE reduction, % cell viability, IC25,50 & 95, TC5,50 & 95 and other indices.
(§9) Combination effects are analyzed statistically by Prichard and Shipman method. Effects of the drug combination on efficacy and toxicity are calculated based on the activity or toxicity of the two compounds when tested alone. The expected additive inhibition rate of virus production or the expected additive cell viability rate subtracted from the experimentally determined inhibition rate or viability rate at each combination concentration results in a positive value (synergy), a negative value (antagonism), or zero (addivity).

[1] = test system: Madin-Darby bovine kidney (MDBK) cells; test: Cytotoxicity in MDBK cells (drug toxicity control wells, XTT)
Description: as §1, §2, §3, §4, §5, §6, §7, §8, §9

[2] = Compound conc 0.020, INF-αA conc 0
[3] = Compound conc 0.020, Ribavirin conc 0
[4] = Compound conc 0.063, INF-αA conc 0
[5] = Compound conc 0.063, Ribavirin conc 0
[6] = Compound conc 0.200, INF-αA conc 0
[7] = Compound conc 0.200, Ribavirin conc 0
[8] = Compound conc 0.633, INF-αA conc 0
[9] = Compound conc 0.633, Ribavirin conc 0
[10] = Compound conc 2.00, INF-αA conc 0
[11] = Compound conc 2.00, Ribavirin conc 0

With `NC(=O)c1ncn([C@@H]2O[C@H](CO)[C@@H](O)[C@H]2O)n1` [Ribavirin, 1-β-D-ribofuranosyl-1H-1,2,4-triazole-3carboxamide, reference compound] as the molecule, how does the IC50 (BVDV; Bovine viral diarrhea virus isolates and strains, MDBK) read?
Its IC50 is 0.66 µg/mL.

What about the “Antiviral Percentage Inhibition” value (BVDV; Compound conc 0, Ribavirin conc 0.075) of the same molecule?
The value was 0%.

What about the “Antiviral Percentage Inhibition” value (BVDV; Compound conc 0, Ribavirin conc 0.238) of the same molecule?
Its value is 5.2%.

And the “Antiviral Percentage Inhibition” value (BVDV; Compound conc 0, Ribavirin conc 0.751)?
Its value is 5%.

What about the “Antiviral Percentage Inhibition” value (BVDV; Compound conc 0, Ribavirin conc 2.373) of the same molecule?
Its value is 7.9%.

And the “Antiviral Percentage Inhibition” value (BVDV; Compound conc 0, Ribavirin conc 7.5)?
Its value is 43.7%.

What about the “Antiviral Percentage Inhibition” value (BVDV; Ribavirin conc 0.075, INF-αA conc 0) of the same molecule?
The value was 0%.

And the “Antiviral Percentage Inhibition” value (BVDV; Ribavirin conc 0.238, INF-αA conc 0)?
Its value is 5%.

And the “Antiviral Percentage Inhibition” value (BVDV; Ribavirin conc 0.751, INF-αA conc 0)?
The value was 3%.

What about the “Antiviral Percentage Inhibition” value (BVDV; Ribavirin conc 2.373, INF-αA conc 0) of the same molecule?
Its value is 31.5%.

And the “Antiviral Percentage Inhibition” value (BVDV; Ribavirin conc 7.500, INF-αA conc 0)?
The value was 41.6%.

And the Comments (BVDV)?
Its Comments is “Active/Toxic”.

What about the TC50 ([1]; MDBK cells, unit per footnote) of the same molecule?
Its TC50 is 7.19* μg/ml.

What does the source list for “(5-Phenyl-1,2,4-thiadiazol)-3-yl thiourea [Compound]”?
Antiviral Percentage Inhibition (BVDV; [2]): 5.8%; Antiviral Percentage Inhibition (BVDV; [3]): 7.3%; Antiviral Percentage Inhibition (BVDV; [4]): 7%; Antiviral Percentage Inhibition (BVDV; [5]): 5%; Antiviral Percentage Inhibition (BVDV; [6]): 4%; Antiviral Percentage Inhibition (BVDV; [7]): 3.6%; Antiviral Percentage Inhibition (BVDV; [8]): 11.7%; Antiviral Percentage Inhibition (BVDV; [9]): 7.6%; Antiviral Percentage Inhibition (BVDV; [10]): 25.9%; Antiviral Percentage Inhibition (BVDV; [11]): 29.5%; combination effect on activity against BVDV in vitro (words) (BVDV; listed as (5-Phenyl -1,2,4-thiadiazol)-3-yl thiourea): acts synergistically with INF-αA; combination effect on activity against BVDV in vitro (words) (BVDV; listed as (5-Phenyl-1,2,4-thiadiazol)-3-yl thiourea): does not have antagonistic effect on activity of ribavirin; Cytotoxicity Percentage [1, 2]: 0%; Cytotoxicity Percentage [1, 3]: 16.3%; Cytotoxicity Percentage [1, 4]: 5.8%; Cytotoxicity Percentage [1, 5]: 6.7%; Cytotoxicity Percentage [1, 6]: 8.3%; Cytotoxicity Percentage [1, 7]: 6.2%; Cytotoxicity Percentage [1, 8]: 13.5%; Cytotoxicity Percentage [1, 9]: 16.9%; Cytotoxicity Percentage [1, 10]: 10.3%; Cytotoxicity Percentage [1, 11]: 18.8%; combination effect on toxicity of ribavirin towards the cells ([1]; in vitro): imposes antagonistic effect on toxicity of ribavirin

For INF-α I: human IFN-α species I, which IC50 (BVDV; BVDV in MDBK cells) is on record?
Its IC50 is 26.80 U/ml.

And the TI (BVDV)?
Its TI is greater than 11.81.

And the Comments (BVDV)?
The Comments was “Active/Nontoxic”.

What about the TC50 [1] of the same molecule?
The TC50 was greater than 316.00 U/ml.

B1: INF-α K: human IFN-α species K (protein, UniProt P05013 21-189, looked up)
Interferon alpha-6: SLDCDLPQTHSLGHRRTMMLLAQMRRISLFSCLKDRHDFRFPQEEFDGNQFQKAEAISVLHEVIQQTFNLFSTKDSSVAWDERLLDKLYTELYQQLNDLEACVMQEVWVGGTPLMNEDSILAVRKYFQRITLYLTEKKYSPCAWEVVRAEIMRSFSSSRNLQERLRRKE
With B1 as the molecule, how does the IC50 (BVDV; BVDV in MDBK cells) read?
Its IC50 is 24.80 U/ml.

And the TI (BVDV)?
Its TI is greater than 12.72.

And the Comments (BVDV)?
The Comments was “Active/Nontoxic”.

What about the TC50 [1] of the same molecule?
Its TC50 is greater than 316.00 U/ml.

B2: INF-α F: human IFN-α species F (protein, UniProt P01568 24-189, looked up)
Interferon alpha-21: CDLPQTHSLGNRRALILLAQMGRISPFSCLKDRHDFGFPQEEFDGNQFQKAQAISVLHEMIQQTFNLFSTKDSSATWEQSLLEKFSTELNQQLNDLEACVIQEVGVEETPLMNVDSILAVKKYFQRITLYLTEKKYSPCAWEVVRAEIMRSFSLSKIFQERLRRKE
Which IC50 (BVDV; BVDV in MDBK cells) does the source give for B2 here?
Its IC50 is 33.00 U/ml.

And the TI (BVDV)?
Its TI is greater than 9.57.

What about the Comments (BVDV) of the same molecule?
Its Comments is “Active/Nontoxic”.

What about the TC50 [1] of the same molecule?
The TC50 was greater than 316.00 U/ml.

B3: INF-α H2: human IFN-α species H2 (protein, UniProt P01570 24-189, looked up)
Interferon alpha-14: CNLSQTHSLNNRRTLMLMAQMRRISPFSCLKDRHDFEFPQEEFDGNQFQKAQAISVLHEMMQQTFNLFSTKNSSAAWDETLLEKFYIELFQQMNDLEACVIQEVGVEETPLMNEDSILAVKKYFQRITLYLMEKKYSPCAWEVVRAEIMRSLSFSTNLQKRLRRKD
B3 was tested. Which IC50 (BVDV; BVDV in MDBK cells) did it give?
Its IC50 is 7.00 U/ml.

What about the TI (BVDV) of the same molecule?
Its TI is greater than 45.12.

And the Comments (BVDV)?
The Comments was “Active/Nontoxic”.

And the TC50 [1]?
Its TC50 is greater than 316.00 U/ml.

B4: INF-α WA: human IFN-α species WA (protein, UniProt P05015 24-189, looked up)
Interferon alpha-16: CDLPQTHSLGNRRALILLAQMGRISHFSCLKDRYDFGFPQEVFDGNQFQKAQAISAFHEMIQQTFNLFSTKDSSAAWDETLLDKFYIELFQQLNDLEACVTQEVGVEEIALMNEDSILAVRKYFQRITLYLMGKKYSPCAWEVVRAEIMRSFSFSTNLQKGLRRKD
With B4 as the molecule, how does the IC50 (BVDV; BVDV in MDBK cells) read?
The IC50 was 6.75 U/ml.

What about the TI (BVDV) of the same molecule?
Its TI is greater than 46.78.

And the Comments (BVDV)?
Its Comments is “Active/Nontoxic”.

And the TC50 [1]?
Its TC50 is greater than 316.00 U/ml.

B5: INF-α J1: human IFN-α species J1 (protein, UniProt P01567 24-189, looked up)
Interferon alpha-7: CDLPQTHSLRNRRALILLAQMGRISPFSCLKDRHEFRFPEEEFDGHQFQKTQAISVLHEMIQQTFNLFSTEDSSAAWEQSLLEKFSTELYQQLNDLEACVIQEVGVEETPLMNEDFILAVRKYFQRITLYLMEKKYSPCAWEVVRAEIMRSFSFSTNLKKGLRRKD
For B5, which IC50 (BVDV; BVDV in MDBK cells) is on record?
The IC50 was 10.60 U/ml.

What about the TI (BVDV) of the same molecule?
Its TI is greater than 29.90.

What about the Comments (BVDV) of the same molecule?
Its Comments is “Active/Nontoxic”.

And the TC50 [1]?
The TC50 was greater than 316.00 U/ml.

B6: INF-α D: human IFN-α species D (protein, UniProt P01562 24-189, looked up)
Interferon alpha-1/13: CDLPETHSLDNRRTLMLLAQMSRISPSSCLMDRHDFGFPQEEFDGNQFQKAPAISVLHELIQQIFNLFTTKDSSAAWDEDLLDKFCTELYQQLNDLEACVMQEERVGETPLMNADSILAVKKYFRRITLYLTEKKYSPCAWEVVRAEIMRSLSLSTNLQERLRRKE
How did the IC50 (BVDV; BVDV in MDBK cells) turn out when B6 was run?
The IC50 was 11.60 U/ml.

And the TI (BVDV)?
The TI was greater than 27.31.

And the Comments (BVDV)?
The Comments was “Active/Nontoxic”.

And the TC50 [1]?
Its TC50 is greater than 316.00 U/ml.

B7: INF-α G: human IFN-α species G (protein, UniProt P01569 22-189, looked up)
Interferon alpha-5: LGCDLPQTHSLSNRRTLMIMAQMGRISPFSCLKDRHDFGFPQEEFDGNQFQKAQAISVLHEMIQQTFNLFSTKDSSATWDETLLDKFYTELYQQLNDLEACMMQEVGVEDTPLMNVDSILTVRKYFQRITLYLTEKKYSPCAWEVVRAEIMRSFSLSANLQERLRRKE
Which IC50 (BVDV; BVDV in MDBK cells) does the source give for B7 here?
Its IC50 is 23.60 U/ml.

And the TI (BVDV)?
Its TI is greater than 13.40.

What about the Comments (BVDV) of the same molecule?
The Comments was “Active/Nontoxic”.

What about the TC50 [1] of the same molecule?
Its TC50 is greater than 316.00 U/ml.

B8: INF-α C: human IFN-α species C (protein, UniProt P01566 24-189, looked up)
Interferon alpha-10: CDLPQTHSLGNRRALILLGQMGRISPFSCLKDRHDFRIPQEEFDGNQFQKAQAISVLHEMIQQTFNLFSTEDSSAAWEQSLLEKFSTELYQQLNDLEACVIQEVGVEETPLMNEDSILAVRKYFQRITLYLIERKYSPCAWEVVRAEIMRSLSFSTNLQKRLRRKD
With B8 as the molecule, how does the IC50 (BVDV; BVDV in MDBK cells) read?
The IC50 was 9.12 U/ml.

What about the TI (BVDV) of the same molecule?
Its TI is greater than 34.66.

What about the Comments (BVDV) of the same molecule?
The Comments was “Active/Nontoxic”.

And the TC50 [1]?
Its TC50 is greater than 316.00 U/ml.

From patent US6340696B1, “Viral treatment” (The Procter & Gamble Company, priority 1999, dated 2002)
